Two molecules from patent US20040213766A1, “Compositions and methods for treating transplants” (priority 2002, published 2004) can be followed below.

In one assay the test system is severed limbs. The assay is described as follows: Limb replantation after perfusion of amputated hind legs. Conditions: rat hind leg replantation, perfusion every 3 hours. Format: in vivo. Here is the method: Hind legs were amputated from rats, and the major feed arteries for the severed limbs were cannulated for infusion of A-FUV, loaded in a 1 mM ATP solution. The limbs were perfused with A-FUV or control solutions (see Table 1) every 3 hours, or as deemed necessary by the change in tissue ATP levels. The arterial pressure of the limbs were monitored during infusion to decrease the chance of flow-induced injury, and to monitor the overall preservation of the severed limbs (higher perfusion pressures may indicate limb morbidity). Following the preservation period, the limbs were flushed with Ringers to remove traces of A-FUV. The limbs were then surgically reattached, and external indices of limb function after anastomoses were evaluated (limb color, evidence of microthrombi, coagulation, limb temperature). The animals prior to and following replantation received heparin to prevent hemostasis. In addition, animals were placed on antibiotic therapy to reduce infection. Control limbs were perfused with vehicle only, vehicle and ATP only, or vehicle and FUVs only.

The test system of a further assay is HUVEC. The assay is described as follows: 3H-ATP tracer incorporation into HUVEC and repeated washes. Format: cell-based, human. Conditions: cells washed repeatedly.

Method for HUVEC: To confirm the carboxyfluorescein studies, ^3H-ATP was used as a tracer instead of the fluor. Vesicles were incubated with HUVEC for either 5, 10, 15, 30, 45, 60, 90, 120, or 240 minutes.

Regarding `Nc1ncnc2c1ncn2[C@@H]1O[C@H](COP(=O)(O)OP(=O)(O)OP(=O)(O)O)[C@@H](O)[C@H]1O` [ATP], in the assay with severed limbs, the Limb outcome is “necrosis”. Take `Nc1ncnc2c1ncn2[C@@H]1O[C@H](COP(=O)(O)OP(=O)(O)OP(=O)(O)O)[C@@H](O)[C@H]1O` [free ^3H-ATP, ^3H-ATP]: the “radioactivity of the cells after repeated washes” value with HUVEC was “complete loss of radioactivity”.
